Measured values taken from article PMC3532212 (PLoS ONE, 2012).
“Also recorded” adds a separate entry of the source.

How the values were obtained:
[1] = Plasma concentrations during escalating i.v. infusion in anesthetized rats; assay type: in vivo; conditions: male, Sprague Dawley, plasma, iv, anesthetized rat, BAF312 i.v.
Description: The cardiovascular effects of FTY720 and BAF312 were tested in anesthetized rats (180–200 g). In brief, male Sprague Dawley rats (Charles River) were anesthetized with Inactin (110 mg/kg i.p.) and a tracheotomy performed. The femoral artery and veins were catheterized for measurement of mean arterial pressure and heart rate, collection of blood samples at 20-min intervals (0.2 mL/sample), and for compound infusion/hydration as previously described, [24]; blood samples were also withdrawn in vehicle-treated control rats. FTY720, infused as a hydrochloride salt (0.1, 0.3, 1.0 mg/kg/20-min free base equivalent solubilized in a 100% PEG-400 vehicle), or BAF312 (0.5, 1.5, 5.0 mg/kg/20-min solubilized in a 100% PEG-400 vehicle) were administered via three escalating 20-min infusions (0.011 mL/min) followed by a 1-hr post-treatment period. A blood sample was withdrawn at 20, 40, 60, and 120-minutes for analysis of plasma concentrations of the parent compound, and in the case of FTY720, also the phosphorylated metabolite, (S)-FTY720-P. Statistical significance (p<0.05) was based on a t-test comparing treatment change from baseline (baseline was defined as the period from −30 to 0 minutes) vs. vehicle controls change from baseline at each timepoint without adjustment for multiple comparisons. In a separate group of anesthetized rats in which left ventricular (LV) contractility was also recorded with a Millar pressure transducer introduced into the left ventricle, BAF312 was infused in the same dosing regimen as the studies described above (0.5, 1.5, 5.0 mg/kg/20-min solubilized in a 100% PEG-400 vehicle) and effects on LV dP/dtmax were recorded.

[2] = tested on: conscious, telemetry-instrumented rats; experiment: Telemetry-instrumented conscious rats, repeat-dosing hemodynamics; assay type: in vivo; conditions: conscious rat; for mean arterial pressure, average change in 24-mean values: 14-days of treatment
Description: Mean arterial pressure was assessed in conscious, freely moving male Sprague Dawley rats (n = 6–8/group; Charles River) instrumented with telemetry transmitters (DSI-Ponemah) and housed in metabolism cages as previously described, [26]. Tested compounds were solubilized in a 0.5% Methylcellulose/0.015% Tween 80 vehicle that was also dosed alone (p.o./QD, 5 mL/kg) as a control in the study. FTY720 was administered p.o. at 0.3, 1.0, 3.0, 10.0 mg/kg p.o. as a single dose or p.o./QD at 0.5, 1.5, and 5.0 mg/kg in a chronic study. […] Mean arterial pressure and heart rate are shown as 1-hr and/or 24-hr mean values±SEM as described in the results. Blood samples in satellite rats were withdrawn at various timepoints as described in the results for analysis of plasma concentrations of the parent compound and, in the case of FTY720, also the phosphorylated metabolite, (S)-FTY720-P. Statistical analysis for the single-dose acute studies was based on one-way ANOVA to compare the treatment groups vs. vehicle for each time period after dosing (0–24 hrs, 24–48 hrs, and 48–72 hrs); statistical significance (p<0.05) was detected by Dunnett’s post-hoc test to compare treatment with vehicle controls. The statistical analysis in the chronic studies were based on one-way ANOVA with repeated measures to compare the treatment arms; statistical significance (p<0.05) was detected by Dunnett’s post-hoc test to compare treatment with vehicle controls.

[3] = Plasma concentrations in repeat-dosing study, satellite rats; assay type: in vivo, rat; conditions: for concentration at 4 h / concentration at 8 h / concentration at 24 h: male, Sprague Dawley, rat, plasma, po, mean±SEM; for Plasma concentration at Tmax (4 hrs) / Terminal plasma concentration at Tmax: satellite rats; for Plasma concentration at Tmax (4 hrs): day 1; for Terminal plasma concentration at Tmax: last day of study
Description: Mean arterial pressure was assessed in conscious, freely moving male Sprague Dawley rats (n = 6–8/group; Charles River) instrumented with telemetry transmitters (DSI-Ponemah) and housed in metabolism cages as previously described, [26]. Tested compounds were solubilized in a 0.5% Methylcellulose/0.015% Tween 80 vehicle that was also dosed alone (p.o./QD, 5 mL/kg) as a control in the study. FTY720 was administered p.o. at 0.3, 1.0, 3.0, 10.0 mg/kg p.o. as a single dose or p.o./QD at 0.5, 1.5, and 5.0 mg/kg in a chronic study. BAF312 was administered p.o/QD at 0.3, 3.0, and 30 mg/kg as a single dose and in a chronic study. Mean arterial pressure and heart rate are shown as 1-hr and/or 24-hr mean values±SEM as described in the results. Blood samples in satellite rats were withdrawn at various timepoints as described in the results for analysis of plasma concentrations of the parent compound and, in the case of FTY720, also the phosphorylated metabolite, (S)-FTY720-P. Statistical analysis for the single-dose acute studies was based on one-way ANOVA to compare the treatment groups vs. vehicle for each time period after dosing (0–24 hrs, 24–48 hrs, and 48–72 hrs); statistical significance (p<0.05) was detected by Dunnett’s post-hoc test to compare treatment with vehicle controls. The statistical analysis in the chronic studies were based on one-way ANOVA with repeated measures to compare the treatment arms; statistical significance (p<0.05) was detected by Dunnett’s post-hoc test to compare treatment with vehicle controls.

[4] = tested on: mouse and rat experimental autoimmune encephalitis, EAE; set-up: method as in PMID 23436932; conditions: correlated with reduced circulating lymphocytes and monocytes; cited from earlier work

CCc1cc(/C(C)=N/OCc2ccc(C3CCCCC3)c(C(F)(F)F)c2)ccc1CN1CC(C(=O)O)C1 [BAF312]
concentration at 20 min ([1]; end of 0.5 mg/kg/20 min infusion): 1430 ± 707 nM | concentration at 40 min ([1]; end of 1.5 mg/kg/20 min infusion): 3220 ± 210 nM | concentration at 60 min ([1]; end of 5.0 mg/kg/20 min infusion): 7250 ± 517 nM | concentration at 120 min ([1]; end of 60-min post-treatment period): 2820 ± 276 nM | mean arterial pressure, average change in 24-mean values ([2]; BAF312 0.3 mg/kg/d p.o./QD): 3.0±0.5 mmHg | 24-hr mean change in heart rate ([2]; BAF312 3 mg/kg dose group (so in the source), 14-day study): −2±2 beats/min | mean arterial pressure, average change in 24-mean values ([2]; BAF312 3.0 mg/kg/d p.o./QD): 1.1±0.5 mmHg | 24-hr mean change in heart rate ([2]; BAF312 10 mg/kg dose group (so in the source), 14-day study): −2±3 beats/min | 24-hr mean change in heart rate ([2]; BAF312 30 mg/kg dose group, 14-day study): −2±4 beats/min | mean arterial pressure, average change in 24-mean values ([2]; BAF312 30 mg/kg/d p.o./QD): 0.1±0.5 mmHg | effect on blood pressure / mean arterial pressure during repeat dosing ([2]; BAF312 0.3, 3.0, 30.0 mg/kg/d p.o.): no significant effect; also recorded: no significant increase | bradycardia during repeat dosing ([2]; BAF312 any dose group, 14-day study): no bradycardia was observed | concentration at 4 h ([3]; 0.3 mg/kg/day, BAF312 0.3 mg/kg/d p.o., Terminal (last day), 4 hr post-dose): 81 ± 8 nM | concentration at 8 h ([3]; 0.3 mg/kg/day, BAF312 0.3 mg/kg/d p.o., Terminal (last day), 8 hr post-dose): 54 ± 7 nM | concentration at 24 h ([3]; 0.3 mg/kg/day, BAF312 0.3 mg/kg/d p.o., Terminal (last day), 24 hr post-dose): 13 ± 6 nM | concentration at 4 h ([3]; 0.3 mg/kg/day, BAF312 0.3 mg/kg/d p.o., Day 1, 4 hr post-dose): 91 ± 7 nM | concentration at 8 h ([3]; 0.3 mg/kg/day, BAF312 0.3 mg/kg/d p.o., Day 1, 8 hr post-dose): 65 ± 8 nM | concentration at 24 h ([3]; 0.3 mg/kg/day, BAF312 0.3 mg/kg/d p.o., Day 1, 24 hr post-dose): 0 nM | concentration at 4 h ([3]; 3 mg/kg/day, BAF312 3.0 mg/kg/d p.o., Terminal (last day), 4 hr post-dose): 735 ± 73 nM | concentration at 8 h ([3]; 3 mg/kg/day, BAF312 3.0 mg/kg/d p.o., Terminal (last day), 8 hr post-dose): 480 ± 33 nM | concentration at 24 h ([3]; 3 mg/kg/day, BAF312 3.0 mg/kg/d p.o., Terminal (last day), 24 hr post-dose): 98 ± 8 nM | concentration at 4 h ([3]; 3 mg/kg/day, BAF312 3.0 mg/kg/d p.o., Day 1, 4 hr post-dose): 685 ± 113 nM | concentration at 8 h ([3]; 3 mg/kg/day, BAF312 3.0 mg/kg/d p.o., Day 1, 8 hr post-dose): 584 ± 81 nM | concentration at 24 h ([3]; 3 mg/kg/day, BAF312 3.0 mg/kg/d p.o., Day 1, 24 hr post-dose): 103 ± 9 nM | concentration at 4 h ([3]; 30 mg/kg/day, BAF312 30.0 mg/kg/d p.o., Terminal (last day), 4 hr post-dose): 8330 ± 650 nM | concentration at 8 h ([3]; 30 mg/kg/day, BAF312 30.0 mg/kg/d p.o., Terminal (last day), 8 hr post-dose): 5280 ± 443 nM | concentration at 24 h ([3]; 30 mg/kg/day, BAF312 30.0 mg/kg/d p.o., Terminal (last day), 24 hr post-dose): 942 ± 117 nM | concentration at 4 h ([3]; 30 mg/kg/day, BAF312 30.0 mg/kg/d p.o., Day 1, 4 hr post-dose): 6400 ± 390 nM | concentration at 8 h ([3]; 30 mg/kg/day, BAF312 30.0 mg/kg/d p.o., Day 1, 8 hr post-dose): 4820 ± 617 nM | concentration at 24 h ([3]; 30 mg/kg/day, BAF312 30.0 mg/kg/d p.o., Day 1, 24 hr post-dose): 721 ± 211 nM | Plasma concentration at Tmax (4 hrs) ([3]; BAF312 0.3 mg/kg/d p.o.): 91 ± 7 nM | Terminal plasma concentration at Tmax ([3]; BAF312 0.3 mg/kg/d p.o.): 81 ± 8 nM | Plasma concentration at Tmax (4 hrs) ([3]; BAF312 3.0 mg/kg/d p.o.): 685 ± 113 nM | Terminal plasma concentration at Tmax ([3]; BAF312 3.0 mg/kg/d p.o.): 735 ± 73 nM | Plasma concentration at Tmax (4 hrs) ([3]; BAF312 30 mg/kg/d p.o.): 6395 ± 390 nM | Terminal plasma concentration at Tmax ([3]; BAF312 30 mg/kg/d p.o.): 8328 ± 650 nM | efficacious dose in EAE [4]: 0.3 mg/kg
